Laboratory results as given in patent US10167293B2, “[8-(phenylsulfonyl)-3,8-diazabicyclo[3.2.1]oct-3-yl](1H-1,2,3-triazol-4-yl)methanones” (BAYER PHARMA AKTIENGESELLSCHAFT, priority 2016, dated 2019).

What follows are molecules tested against recombinant human AKR1C3 (Homo sapiens (Human), UniProt P42330) (assay: AKR1C3-inhibitory activity assay (Coumberone to Coumberol fluorescence)). Conditions: recombinant human AKR1C3, 15 min pre-incubation, 10 μM NADPH, 0.3 μM Coumberone.
recombinant human AKR1C3, sequence (P42330 whole entry): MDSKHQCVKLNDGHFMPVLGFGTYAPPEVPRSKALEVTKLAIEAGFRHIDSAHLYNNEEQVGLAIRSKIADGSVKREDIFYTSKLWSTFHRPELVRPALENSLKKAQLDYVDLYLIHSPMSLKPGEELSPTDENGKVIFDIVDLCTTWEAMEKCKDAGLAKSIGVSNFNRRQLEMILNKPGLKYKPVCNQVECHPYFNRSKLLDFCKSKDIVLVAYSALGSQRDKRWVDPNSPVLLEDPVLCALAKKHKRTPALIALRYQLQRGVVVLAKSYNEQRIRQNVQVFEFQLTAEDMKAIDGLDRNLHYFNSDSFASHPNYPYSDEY
Type: biochemical
Method: The AKR1C3-inhibitory activity of the substances of the present invention was measured in the AKR1C3 assay described in the paragraphs below.
Essentially, the enzyme activity is measured by quantification of the generation of Coumberol from Coumberone (Halim et al. J. AM. CHEM. SOC. 2008, 130:14123-14128 and Yee et al. Proc. Natl. Acad. Sci. USA 2006, 103:13304-13309). In this test, the increase of the highly fluorescent Coumberol by NADPH—(nicotinamide adenine dinucleotide phosphate)-dependent reduction of the non-fluorescent Coumberone by AKR1C3 was determined.
The enzyme used was recombinant human AKR1C3 (Aldo-keto reductase family 1 member C3; GenBank Accession No. NM_003739). This was expressed in E. coli as GST (glutathione S transferase) fusion protein and purified by glutathione Sepharose affinity chromatography. The GST was removed by digestion with thrombin and subsequent size exclusion chromatography (Dufort, I., Rheault, P., Huang, X F., Soucy, P., and Luu-The, V., Endocrinology 140, 568-574 (1999)).
For the assay, 50 nl of a 100-fold concentrated solution of the test substance in DMSO were pipetted into a black low-volume 384-well microtiter plate (Greiner Bio-One, Frickenhausen, Germany), 2.5 μl of a solution of AKR1C3 in assay buffer [50 mM potassium phosphate buffer pH 7, 1 mM DTT, 0.0022% (w/v) Pluronic F-127, 0.01% BSA (w/v) and protease inhibitor cocktail (Complete, EDTA-free Protease Inhibitor Cocktail from Roche)] were added and the mixture was incubated for 15 min to allow pre-binding of the substances to the enzyme prior to the enzyme reaction. The enzyme reaction was then started by addition of 2.5 μl of a solution of NADPH (20 μM→final concentration in 5 μl of assay volume is 10 μM) and Coumberone (0.6 μM→final concentration in 5 μl of assay volume is 0.3 μM) in assay buffer, and the resulting mixture was incubated at 22° C. for the reaction time of typically 90 min. The concentration of the AKR1C3 and the reaction time was adapted to the respective activity of the enzyme preparation and adjusted such that the assay was carried out in the linear range. Typical AKR1C3 concentrations were in the region of 1 nM. The reaction was stopped by addition of 2.5 μl of a stop solution consisting of 3 μM EM-1404 as inhibitor (U.S. Pat. No. 6,541,463) in 50 mM HEPES pH7.5 (3 μM EM-1404→final concentration in 7.5 μl of assay volume is 1 μM). The fluorescence of the Coumberole was then measured at 520 nm (excitation at 380 nm) using a suitable measuring instrument (Pherastar from BMG Labtechnologies). The intensity of the fluorescence was used as a measure of the amount of Coumberole formed and thus of the enzyme activity of AKR1C3. The data were normalized (enzyme reaction without inhibitor=0% inhibition; all other assay components, but no enzyme=100% inhibition).
For `O=C(c1c[nH]nn1)N1CC2CCC(C1)N2S(=O)(=O)c1ccccc1` [Example 1, [8-(phenylsulfonyl)-3,8-diazabicyclo[3.2.1]oct-3-yl](1H-1,2,3-triazol-4-yl)methanone], the IC50 was 3.7 nM.
`O=C(c1c[nH]nn1)N1CC2CCC(C1)N2S(=O)(=O)c1ccccc1C(F)(F)F` [Example 2, 1H-1,2,3-triazol-4-yl[8-{[2-(trifluoromethyl)phenyl]sulfonyl}-3,8-diazabicyclo[3.2.1]oct-3-yl]methanone] gave an IC50 of 1 nM.
Molecule `O=C(c1cnn[nH]1)N1CC2CCC(C1)N2S(=O)(=O)c1cc(F)cc(F)c1` [Example 3, {8-[(3,5-difluorophenyl)sulfonyl]-3,8-diazabicyclo[3.2.1]oct-3-yl}(1H-1,2,3-triazol-5-yl)methanone] has an IC50 of 1.4 nM.
`O=C(c1cnn[nH]1)N1CC2CCC(C1)N2S(=O)(=O)c1cccc(F)c1` [Example 4, {8-[(3-fluorophenyl)sulfonyl]-3,8-diazabicyclo[3.2.1]oct-3-yl}(1H-1,2,3-triazol-5-yl)methanone] was tested, and the IC50 was 1.2 nM.
For `O=C(c1cnn[nH]1)N1CC2CCC(C1)N2S(=O)(=O)c1cccc(Cl)c1` [Example 5, {8-[(3-chlorophenyl)sulfonyl]-3,8-diazabicyclo[3.2.1]oct-3-yl}(1H-1,2,3-triazol-4-yl)methanone], the IC50 was 1.2 nM.
Work on `Cc1ccccc1S(=O)(=O)N1C2CCC1CN(C(=O)c1cnn[nH]1)C2` [Example 6, {8-[(2-methylphenyl)sulfonyl]-3,8-diazabicyclo[3.2.1]oct-3-yl}(1H-1,2,3-triazol-4-yl)methanone] yielded an IC50 of 1.7 nM.
`O=C(c1c[nH]nn1)N1CC2CCC(C1)N2S(=O)(=O)c1cccc(S(F)(F)(F)(F)F)c1` [Example 8, [8-{[3-(pentafluoro-lambda^6-sulfanyl)phenyl]sulfonyl}-3,8-diazabicyclo[3.2.1]oct-3-yl](1H-1,2,3-triazol-4-yl)methanone] gave an IC50 of 1.3 nM.
`O=C(c1c[nH]nn1)N1CC2CCC(C1)N2S(=O)(=O)c1cc(Cl)cc(Cl)c1` [Example 9, {8-[(3,5-dichlorophenyl)sulfonyl]-3,8-diazabicyclo[3.2.1]oct-3-yl}(1H-1,2,3-triazol-4-yl)methanone] showed an IC50 of 0.9 nM.
`O=C(c1c[nH]nn1)N1CC2CCC(C1)N2S(=O)(=O)c1cc(C(F)(F)F)cc(C(F)(F)F)c1` [Example 10] was tested, and the IC50 was 7.3 nM.
With `O=C(c1c[nH]nn1)N1CC2CCC(C1)N2S(=O)(=O)c1ccc(Cl)s1` [Example 11, {8-[(5-chlorothiophen-2-yl)sulfonyl]-3,8-diazabicyclo[3.2.1]oct-3-yl}(1H-1,2,3-triazol-4-yl)methanone] the IC50 was 1.1 nM.
Molecule `O=C(c1c[nH]nn1)N1CC2CCC(C1)N2S(=O)(=O)c1cc(F)ccc1F` [Example 12, {8-[(2,5-difluorophenyl)sulfonyl]-3,8-diazabicyclo[3.2.1]oct-3-yl}(1H-1,2,3-triazol-4-yl)methanone] has an IC50 of 1.1 nM.
`Cc1cccc(S(=O)(=O)N2C3CCC2CN(C(=O)c2cnn[nH]2)C3)c1` [Example 13, {8-[(3-methylphenyl)sulfonyl]-3,8-diazabicyclo[3.2.1]oct-3-yl}(1H-1,2,3-triazol-5-yl)methanone] gave an IC50 of 1.4 nM.
In the case of `Cc1ccc(S(=O)(=O)N2C3CCC2CN(C(=O)c2cnn[nH]2)C3)cc1` [Example 14, {8-[(4-methylphenyl)sulfonyl]-3,8-diazabicyclo[3.2.1]oct-3-yl}(1H-1,2,3-triazol-5-yl)methanone], the IC50 is reported as 1.9 nM.
For `O=C(c1cnn[nH]1)N1CC2CCC(C1)N2S(=O)(=O)c1ccccc1F` [Example 15, {8-[(2-fluorophenyl)sulfonyl]-3,8-diazabicyclo[3.2.1]oct-3-yl}(1H-1,2,3-triazol-5-yl)methanone], the IC50 was 1.5 nM.
`O=C(c1cnn[nH]1)N1CC2CCC(C1)N2S(=O)(=O)c1ccc(F)cc1` [Example 16, {8-[(4-fluorophenyl)sulfonyl]-3,8-diazabicyclo[3.2.1]oct-3-yl}(1H-1,2,3-triazol-5-yl)methanone] was tested, and the IC50 was 2.2 nM.
`N#Cc1cccc(S(=O)(=O)N2C3CCC2CN(C(=O)c2cnn[nH]2)C3)c1` [Example 17, 3-{[3-(1H-1,2,3-triazol-5-ylcarbonyl)-3,8-diazabicyclo[3.2.1]oct-8-yl]sulfonyl}benzonitrile] showed an IC50 of 2.9 nM.
Work on `Cc1cc(C)cc(S(=O)(=O)N2C3CCC2CN(C(=O)c2cnn[nH]2)C3)c1` [Example 18, {8-[(3,5-dimethylphenyl)sulfonyl]-3,8-diazabicyclo[3.2.1]oct-3-yl}(1H-1,2,3-triazol-5-yl)methanone] yielded an IC50 of 1 nM.
`Cc1ccc(C)c(S(=O)(=O)N2C3CCC2CN(C(=O)c2cnn[nH]2)C3)c1` [Example 19, {8-[(2,5-dimethylphenyl)sulfonyl]-3,8-diazabicyclo[3.2.1]oct-3-yl}(1H-1,2,3-triazol-5-yl)methanone] was tested, and the IC50 was 1.1 nM.
`COc1cccc(S(=O)(=O)N2C3CCC2CN(C(=O)c2cnn[nH]2)C3)c1` [Example 20, {8-[(3-methoxyphenyl)sulfonyl]-3,8-diazabicyclo[3.2.1]oct-3-yl}(1H-1,2,3-triazol-5-yl)methanone] showed an IC50 of 1 nM.
With `COc1ccc(S(=O)(=O)N2C3CCC2CN(C(=O)c2cnn[nH]2)C3)cc1` [Example 21, {8-[(4-methoxyphenyl)sulfonyl]-3,8-diazabicyclo[3.2.1]oct-3-yl}(1H-1,2,3-triazol-5-yl)methanone] the IC50 was 2 nM.
`O=C(c1cnn[nH]1)N1CC2CCC(C1)N2S(=O)(=O)c1ccc(Cl)cc1` [Example 22, {8-[(4-chlorophenyl)sulfonyl]-3,8-diazabicyclo[3.2.1]oct-3-yl}(1H-1,2,3-triazol-5-yl)methanone] gave an IC50 of 1.5 nM.
`O=C(c1cnn[nH]1)N1CC2CCC(C1)N2S(=O)(=O)c1ccc(F)c(F)c1` [Example 23, {8-[(3,4-difluorophenyl)sulfonyl]-3,8-diazabicyclo[3.2.1]oct-3-yl}(1H-1,2,3-triazol-5-yl)methanone] gave an IC50 of 2.2 nM.
`O=C(c1cnn[nH]1)N1CC2CCC(C1)N2S(=O)(=O)c1c(F)cccc1F` [Example 24, {8-[(2,6-difluorophenyl)sulfonyl]-3,8-diazabicyclo[3.2.1]oct-3-yl}(1H-1,2,3-triazol-5-yl)methanone] was tested, and the IC50 was 1.8 nM.
Work on `O=C(c1cnn[nH]1)N1CC2CCC(C1)N2S(=O)(=O)c1ccc(F)cc1F` [Example 25, {8-[(2,4-difluorophenyl)sulfonyl]-3,8-diazabicyclo[3.2.1]oct-3-yl}(1H-1,2,3-triazol-5-yl)methanone] yielded an IC50 of 2.6 nM.
`Cc1c(Cl)cccc1S(=O)(=O)N1C2CCC1CN(C(=O)c1cnn[nH]1)C2` [Example 26, {8-[(3-chloro-2-methylphenyl)sulfonyl]-3,8-diazabicyclo[3.2.1]oct-3-yl}(1H-1,2,3-triazol-5-yl)methanone] showed an IC50 of 1.1 nM.
`O=C(c1cnn[nH]1)N1CC2CCC(C1)N2S(=O)(=O)c1cccc(Cl)c1F` [Example 27, {8-[(3-chloro-2-fluorophenyl)sulfonyl]-3,8-diazabicyclo[3.2.1]oct-3-yl}(1H-1,2,3-triazol-5-yl)methanone] showed an IC50 of 0.9 nM.
`O=C(c1cnn[nH]1)N1CC2CCC(C1)N2S(=O)(=O)c1ccc(F)c(Cl)c1` [Example 28, {8-[(3-chloro-4-fluorophenyl)sulfonyl]-3,8-diazabicyclo[3.2.1]oct-3-yl}(1H-1,2,3-triazol-5-yl)methanone] gave an IC50 of 1.2 nM.
`O=C(c1cnn[nH]1)N1CC2CCC(C1)N2S(=O)(=O)c1cccc(C(F)(F)F)c1` [Example 29, 1H-1,2,3-triazol-5-yl[8-{[3-(trifluoromethyl)phenyl]sulfonyl}-3,8-diazabicyclo[3.2.1]oct-3-yl]methanone] gave an IC50 of 0.9 nM.
For `O=C(c1cnn[nH]1)N1CC2CCC(C1)N2S(=O)(=O)c1cc(Cl)ccc1Cl` [Example 30, {8-[(2,5-dichlorophenyl)sulfonyl]-3,8-diazabicyclo[3.2.1]oct-3-yl}(1H-1,2,3-triazol-5-yl)methanone], the IC50 was 0.6 nM.
`O=C(c1cnn[nH]1)N1CC2CCC(C1)N2S(=O)(=O)c1cccc(Br)c1` [Example 31, {8-[(3-bromophenyl)sulfonyl]-3,8-diazabicyclo[3.2.1]oct-3-yl}(1H-1,2,3-triazol-5-yl)methanone] was tested, and the IC50 was 0.5 nM.
